Data on eleven molecules can be found in ChEMBL document CHEMBL1201862, “PubChem BioAssay data set” (2004).

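Tested at 5 concentrations; 48 h exposure; 96-well plates; endpoints linearly interpolated, else capped at highest concentration. Abbreviation: GI50, concentration required for 50% inhibition of growth.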 The source made the active and inactive calls. Rule as the data show it: active = GI50 up to about 1.1 µM and inactive = higher.

Among the test systems are A549; COLO 205; DU-145; HCT-116; HCT-15; HL-60; KM12; LOX IMVI; MDA-MB-231; NCI-H23; NCI-H460; NCI/ADR-RES; OVCAR-3; SK-MEL-28; SNB-19; T47D; U-251; UACC-257; UO-31; BT-549.
Test in all cases: NCI anticancer screen, dose series, 48 h

As to `CNC(=O)N(C)/N=N/CCCl`, the GI50 in the experiment on A549 was > 100 µM (inactive); in the experiment on COLO 205 it was > 100 µM (inactive); with DU-145, > 100 µM (inactive); with HCT-116 it was > 100 µM (inactive); in the experiment on HCT-15 it was above 100 µM; with HL-60, > 100 µM (inactive). The GI50 with KM12, in the experiment on LOX IMVI, with MDA-MB-231, in the experiment with NCI-H23, in the experiment with NCI-H460 and in the experiment with NCI/ADR-RES was > 100 µM (inactive) each time. Further, the GI50 in the experiment on OVCAR-3, in the experiment with SK-MEL-28, with SNB-19, in the experiment on T47D, in the experiment with U-251 and in the experiment with UACC-257 was > 100 µM (inactive) in each case. Further, in the experiment with UO-31, the GI50 is > 100 µM (inactive).
As for `CC(C)(C)OC(=O)N(CCCN)CCCCN(CCCN)C(=O)OC(C)(C)C`, the GI50 in the experiment on A549 is > 100 µM (inactive); in the experiment on BT-549 it was > 100 µM (inactive); in the experiment with COLO 205 it was > 100 µM (inactive); in the experiment with DU-145, > 100 µM (inactive); in the experiment on HCT-116, > 100 µM (inactive); in the experiment with HCT-15, above 100 µM. Besides, the GI50 with HL-60, with KM12, with LOX IMVI, in the experiment on NCI-H23, with NCI-H460 and in the experiment with NCI/ADR-RES was > 100 µM (inactive) each time. The GI50 with OVCAR-3, with SK-MEL-28, in the experiment with SNB-19, in the experiment on T47D, with U-251 and with UACC-257 was > 100 µM (inactive) each time. Further, the GI50 in the experiment on UO-31 was > 100 µM (inactive).
Regarding `Cc1nc2c(O)cc3c4c(=O)n(C)c(=O)n(C)c4n(Cc4ccccc4)c3c2nc1C`, the GI50 was 19.2 µM (inactive) in the experiment on A549; 13.3 µM (inactive) in the experiment on COLO 205; 18.3 µM (inactive) in the experiment with DU-145; 14.4 µM (inactive) in the experiment with HCT-116; 17.9 µM with HCT-15; 24.2 µM (inactive) in the experiment on HL-60. In addition, the GI50 was 21.2 µM (inactive) in the experiment on KM12; 18.9 µM (inactive) with LOX IMVI; 20.4 µM (inactive) in the experiment on MDA-MB-231; 19.3 µM (inactive) in the experiment on NCI-H23; 45.8 µM (inactive) with NCI-H460; 25.8 µM (inactive) in the experiment on NCI/ADR-RES. Moreover, the GI50 with SK-MEL-28 was 14.3 µM (inactive); in the experiment on SNB-19, 18.6 µM (inactive); in the experiment on U-251 it was 18.3 µM (inactive); in the experiment with UACC-257, 18.4 µM (inactive); in the experiment with UO-31 it was 17.6 µM (inactive).
With `Clc1ccc(OCc2nnc(CCCCCCCCc3nnc(COc4ccc(Cl)cc4)o3)o2)cc1`, the GI50 with A549 was 72.1 µM (inactive); in the experiment with BT-549 it was > 100 µM (inactive); in the experiment on COLO 205 it was > 100 µM (inactive); with DU-145 it was 68.7 µM (inactive); in the experiment with HCT-116, 10.5 µM (inactive); with HCT-15, above 100 µM. In addition, the GI50 is > 100 µM (inactive) with KM12; 48 µM (inactive) with MDA-MB-231; 79.3 µM (inactive) in the experiment with NCI-H23; > 100 µM (inactive) in the experiment on NCI-H460; > 100 µM (inactive) in the experiment with NCI/ADR-RES; > 100 µM (inactive) in the experiment with OVCAR-3. In addition, the GI50 is > 100 µM (inactive) in the experiment on SK-MEL-28; 34.1 µM (inactive) in the experiment with SNB-19; 29.4 µM (inactive) in the experiment on U-251; > 100 µM (inactive) with UACC-257; > 100 µM (inactive) in the experiment on UO-31.
Turning to `CCN(CC)C(=O)Cc1c(C(=O)N(CC)CC)c(=O)nc2sccn12`, the GI50 with A549 was > 100 µM (inactive); with COLO 205 it was > 100 µM (inactive); in the experiment with HCT-116 it was > 100 µM (inactive); with HCT-15, above 100 µM; with HL-60, > 100 µM (inactive); with KM12, > 100 µM (inactive). Also, the GI50 in the experiment on LOX IMVI, with NCI-H23, with NCI-H460, with OVCAR-3, in the experiment on SK-MEL-28 and in the experiment on SNB-19 was > 100 µM (inactive) throughout. The GI50 in the experiment with U-251, in the experiment with UACC-257 and with UO-31 was > 100 µM (inactive) each time.
On to `COc1ccc(Cc2c(N)[nH]c(=O)n(C)c2=O)cc1`, for which the GI50 is > 100 µM (inactive) in the experiment with A549; > 100 µM (inactive) in the experiment with BT-549; > 100 µM (inactive) in the experiment on COLO 205; > 100 µM (inactive) with HCT-116; 92.7 µM with HCT-15; > 100 µM (inactive) with KM12. For the same molecule, the GI50 with LOX IMVI is 56 µM (inactive); in the experiment on MDA-MB-231 it was 92.7 µM (inactive); in the experiment on NCI-H23, > 100 µM (inactive); in the experiment with NCI-H460, 72.1 µM (inactive); with NCI/ADR-RES it was > 100 µM (inactive); in the experiment on OVCAR-3, > 100 µM (inactive). Moreover, the GI50 was > 100 µM (inactive) in the experiment with SK-MEL-28; > 100 µM (inactive) with SNB-19; > 100 µM (inactive) in the experiment with T47D; > 100 µM (inactive) in the experiment with U-251; > 100 µM (inactive) with UACC-257; 5 µM (inactive) in the experiment with UO-31.
Regarding `CC(=O)c1c2c(cc3c1CC1(Cc4ccccc4C1=O)C3)CCC2` (stereo not given), the GI50 in the experiment with A549 was 28.2 µM (inactive); with COLO 205, 14.3 µM (inactive); in the experiment with DU-145 it was 34.7 µM (inactive); with HCT-116, 16.7 µM (inactive); in the experiment on HCT-15 it was 32.1 µM; in the experiment with HL-60 it was 5.2 µM (inactive). The GI50 in the experiment with KM12 is 16.2 µM (inactive); in the experiment with LOX IMVI it was 19.7 µM (inactive); with MDA-MB-231, 22.3 µM (inactive); with NCI-H23, 16 µM (inactive); with NCI-H460, 28.6 µM (inactive); in the experiment with NCI/ADR-RES, 14.5 µM (inactive). Moreover, the GI50 in the experiment with OVCAR-3 is 15.1 µM (inactive); in the experiment on SK-MEL-28, 20.9 µM (inactive); in the experiment on SNB-19, 45.2 µM (inactive); with T47D, 6.87 µM (inactive); in the experiment on U-251, 24.4 µM (inactive); in the experiment with UACC-257 it was 17.9 µM (inactive). Besides, the GI50 in the experiment with UO-31 was 21.2 µM (inactive).
Turning to `O=c1n(-c2ccccc2)c(=O)n2c(-c3ccccc3)c(-c3ccccc3)n12`, the GI50 in the experiment with A549 was > 100 µM (inactive); in the experiment on BT-549 it was > 100 µM (inactive); in the experiment on COLO 205, 91.6 µM (inactive); in the experiment on HCT-116, 37.4 µM (inactive); with HCT-15, 82.4 µM; in the experiment with HL-60, 33.4 µM (inactive). Moreover, the GI50 with KM12 is > 100 µM (inactive); in the experiment on LOX IMVI, 72.1 µM (inactive); with MDA-MB-231, > 100 µM (inactive); in the experiment with NCI-H23, > 100 µM (inactive); in the experiment on NCI-H460, 91 µM (inactive); with NCI/ADR-RES, > 100 µM (inactive). Moreover, the GI50 with OVCAR-3 is > 100 µM (inactive); in the experiment on SK-MEL-28, > 100 µM (inactive); in the experiment with SNB-19, > 100 µM (inactive); in the experiment with U-251, > 100 µM (inactive); in the experiment with UACC-257, > 100 µM (inactive); with UO-31, 66.4 µM (inactive).
With `O=C1/C(=C/c2ccc(Cl)cc2)N=C(c2ccccc2)N1c1nc2ccccc2s1`, the GI50 with DU-145 was 78.2 µM (inactive); with HCT-116, 40.7 µM (inactive); in the experiment with HCT-15, 47.8 µM; in the experiment on HL-60, 4.03 µM (inactive); with KM12, 61.9 µM (inactive); in the experiment on LOX IMVI, 43.6 µM (inactive). In addition, the GI50 with MDA-MB-231 is 67.8 µM (inactive); with NCI-H23, 30.4 µM (inactive); with NCI-H460 it was 57.4 µM (inactive); with NCI/ADR-RES, 34 µM (inactive); with OVCAR-3 it was 38.5 µM (inactive); in the experiment on SK-MEL-28, 52.6 µM (inactive). In addition, the GI50 in the experiment on T47D is 46.8 µM (inactive); in the experiment on U-251, 42.8 µM (inactive); with UACC-257, 35.6 µM (inactive); with UO-31, 37.3 µM (inactive).
On to `C[Si](C)(OCCS(=O)(=O)O)OC(=C1S(=O)(=O)OCCOS1(=O)=O)c1cccc2ccccc12`, for which the GI50 in the experiment on A549 is > 100 µM (inactive); in the experiment with BT-549, > 100 µM (inactive); in the experiment with COLO 205, > 100 µM (inactive); in the experiment with DU-145, > 100 µM (inactive); in the experiment on HCT-116, > 100 µM (inactive); in the experiment with HCT-15, above 100 µM. In addition, the GI50 in the experiment with HL-60 was 11.6 µM (inactive); in the experiment with KM12, > 100 µM (inactive); in the experiment with LOX IMVI, > 100 µM (inactive); in the experiment with MDA-MB-231, > 100 µM (inactive); in the experiment with NCI-H23, > 100 µM (inactive); in the experiment with NCI-H460, > 100 µM (inactive). For the same molecule, the GI50 in the experiment on NCI/ADR-RES is > 100 µM (inactive); with OVCAR-3, 36.5 µM (inactive); in the experiment with SK-MEL-28 it was > 100 µM (inactive); in the experiment on SNB-19, > 100 µM (inactive); in the experiment with U-251, > 100 µM (inactive); in the experiment with UACC-257, > 100 µM (inactive). For the same molecule, the GI50 with UO-31 is > 100 µM (inactive).
As to `NCCCCNCCCNC(=O)c1csc(-c2nc(CCN)sc2Cl)n1`, the GI50 was > 100 µM (inactive) in the experiment on A549; > 100 µM (inactive) in the experiment on BT-549; > 100 µM (inactive) in the experiment with COLO 205; > 100 µM (inactive) in the experiment on DU-145; > 100 µM (inactive) in the experiment on HCT-116; above 100 µM in the experiment with HCT-15. In addition, the GI50 in the experiment on HL-60, in the experiment with KM12, in the experiment with NCI-H23, in the experiment on NCI-H460, in the experiment on NCI/ADR-RES and in the experiment on OVCAR-3 was > 100 µM (inactive) in each case. Also, the GI50 in the experiment on SK-MEL-28, in the experiment with SNB-19, with T47D, with U-251, in the experiment on UACC-257 and with UO-31 was > 100 µM (inactive) in each case.
